Measurements reported in ChEMBL document CHEMBL4350965 (J Med Chem, 2019).
One block for each molecule: values may come before it.

Experiments:
[1] = Stability in rat liver microsomes assessed as parent compound remaining at 1 uM measured after 30 mins in presence of NADPH generating system
[2] = Stability in human liver microsomes assessed as parent compound remaining at 1 uM measured after 30 mins in presence of NADPH generating system
[3] = target: T1, PI3K p110 beta/p85 alpha (Homo sapiens, UniProt P42338); test: Inhibition of N-terminal His6-tagged recombinant full length human p110beta/untagged recombinant full length human p85alpha expressed in baculovirus infected Sf21 insect cells at 1 uM using PIP2 as substrate measured after 80 mins by transcreener fluorescence polarization assay relative to control
T1 sequence (P27986 whole entry): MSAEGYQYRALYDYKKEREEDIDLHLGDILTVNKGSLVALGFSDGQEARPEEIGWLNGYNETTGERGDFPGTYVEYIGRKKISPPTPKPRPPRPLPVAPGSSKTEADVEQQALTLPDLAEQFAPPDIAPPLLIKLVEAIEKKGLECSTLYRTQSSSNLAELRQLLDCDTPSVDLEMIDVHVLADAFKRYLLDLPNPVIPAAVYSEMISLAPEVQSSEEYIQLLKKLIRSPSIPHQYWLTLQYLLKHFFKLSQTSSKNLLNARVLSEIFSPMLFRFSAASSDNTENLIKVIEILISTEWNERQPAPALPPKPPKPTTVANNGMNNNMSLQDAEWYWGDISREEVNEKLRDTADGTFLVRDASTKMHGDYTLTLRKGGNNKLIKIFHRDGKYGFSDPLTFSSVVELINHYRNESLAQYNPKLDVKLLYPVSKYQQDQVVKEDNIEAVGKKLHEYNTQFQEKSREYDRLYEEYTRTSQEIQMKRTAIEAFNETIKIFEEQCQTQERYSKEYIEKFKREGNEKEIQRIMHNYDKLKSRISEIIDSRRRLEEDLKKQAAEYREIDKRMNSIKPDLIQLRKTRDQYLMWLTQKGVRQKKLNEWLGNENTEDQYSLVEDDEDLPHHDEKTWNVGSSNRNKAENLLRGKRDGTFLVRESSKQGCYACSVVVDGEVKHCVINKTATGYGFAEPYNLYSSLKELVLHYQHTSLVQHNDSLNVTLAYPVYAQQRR
T1 sequence (P42338 whole entry): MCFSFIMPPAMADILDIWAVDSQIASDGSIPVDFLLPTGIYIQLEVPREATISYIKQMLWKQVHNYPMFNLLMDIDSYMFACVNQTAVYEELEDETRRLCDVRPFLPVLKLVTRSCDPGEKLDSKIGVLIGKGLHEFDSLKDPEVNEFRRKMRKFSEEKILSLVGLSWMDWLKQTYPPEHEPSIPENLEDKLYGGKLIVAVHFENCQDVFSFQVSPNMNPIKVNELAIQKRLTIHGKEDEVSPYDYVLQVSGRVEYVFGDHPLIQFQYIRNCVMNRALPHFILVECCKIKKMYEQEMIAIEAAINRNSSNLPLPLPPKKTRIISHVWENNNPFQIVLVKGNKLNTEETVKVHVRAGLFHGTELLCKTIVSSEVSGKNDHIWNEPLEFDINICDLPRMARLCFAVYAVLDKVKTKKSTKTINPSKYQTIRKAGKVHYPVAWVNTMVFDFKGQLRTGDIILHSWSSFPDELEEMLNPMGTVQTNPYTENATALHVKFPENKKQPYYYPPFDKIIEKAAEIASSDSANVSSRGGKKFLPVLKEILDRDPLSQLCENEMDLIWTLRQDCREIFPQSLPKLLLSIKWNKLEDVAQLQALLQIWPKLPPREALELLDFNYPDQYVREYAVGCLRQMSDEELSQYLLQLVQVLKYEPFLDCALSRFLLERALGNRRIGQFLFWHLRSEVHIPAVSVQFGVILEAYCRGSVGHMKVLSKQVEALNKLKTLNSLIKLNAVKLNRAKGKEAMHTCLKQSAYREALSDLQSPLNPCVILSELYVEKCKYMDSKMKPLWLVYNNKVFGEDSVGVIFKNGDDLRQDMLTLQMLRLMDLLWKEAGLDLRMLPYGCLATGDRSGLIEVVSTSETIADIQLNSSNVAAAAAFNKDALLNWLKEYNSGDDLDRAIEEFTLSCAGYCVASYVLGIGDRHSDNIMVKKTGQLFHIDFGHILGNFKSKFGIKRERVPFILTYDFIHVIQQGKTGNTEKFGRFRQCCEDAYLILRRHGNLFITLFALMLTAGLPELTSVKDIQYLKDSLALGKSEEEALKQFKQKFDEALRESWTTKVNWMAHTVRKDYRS

[4] = target: PI3-kinase p110-alpha/p85-alpha (Homo sapiens, UniProt P42336); test: Inhibition of recombinant human full-length N-terminal His-tagged PI3K p110alpha/p85alpha expressed in baculovirus expression system at 1 uM using PIP2 as substrate measured after 80 mins by transcreener fluorescence polarization assay relative to control
PI3-kinase p110-alpha/p85-alpha, sequence (P27986 whole entry): as the sequence (P27986 whole entry) above
PI3-kinase p110-alpha/p85-alpha, sequence (P42336 whole entry): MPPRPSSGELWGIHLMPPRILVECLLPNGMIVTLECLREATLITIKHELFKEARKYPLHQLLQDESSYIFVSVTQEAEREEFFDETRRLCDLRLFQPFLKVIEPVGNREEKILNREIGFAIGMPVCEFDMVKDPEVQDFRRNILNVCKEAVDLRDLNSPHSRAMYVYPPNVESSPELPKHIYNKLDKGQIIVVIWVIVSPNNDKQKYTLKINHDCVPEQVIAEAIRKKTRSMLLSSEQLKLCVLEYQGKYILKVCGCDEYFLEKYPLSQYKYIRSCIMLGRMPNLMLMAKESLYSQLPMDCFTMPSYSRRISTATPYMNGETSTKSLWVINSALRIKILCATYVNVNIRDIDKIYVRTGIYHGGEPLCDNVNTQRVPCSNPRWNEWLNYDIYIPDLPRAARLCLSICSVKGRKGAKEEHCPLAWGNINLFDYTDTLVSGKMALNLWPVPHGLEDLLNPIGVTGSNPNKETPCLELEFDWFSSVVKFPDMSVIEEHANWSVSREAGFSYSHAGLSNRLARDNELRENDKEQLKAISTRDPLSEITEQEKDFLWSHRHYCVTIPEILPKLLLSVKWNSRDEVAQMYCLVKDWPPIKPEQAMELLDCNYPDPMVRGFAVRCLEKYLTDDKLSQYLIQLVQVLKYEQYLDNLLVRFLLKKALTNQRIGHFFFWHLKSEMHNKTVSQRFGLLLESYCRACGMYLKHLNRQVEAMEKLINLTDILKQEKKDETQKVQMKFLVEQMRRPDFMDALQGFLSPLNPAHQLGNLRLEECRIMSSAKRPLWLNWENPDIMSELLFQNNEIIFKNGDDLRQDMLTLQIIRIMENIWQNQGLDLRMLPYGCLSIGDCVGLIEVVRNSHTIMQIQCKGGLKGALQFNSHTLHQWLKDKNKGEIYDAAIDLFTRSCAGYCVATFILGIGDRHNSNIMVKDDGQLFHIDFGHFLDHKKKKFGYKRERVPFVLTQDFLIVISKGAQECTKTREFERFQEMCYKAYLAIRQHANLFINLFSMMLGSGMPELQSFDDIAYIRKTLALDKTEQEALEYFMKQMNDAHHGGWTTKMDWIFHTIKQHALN

[5] = Inhibition of PI3Kgamma in […] RAW264.7 cells assessed as reduction in C5a-stimulated AKT phosphorylation at Ser473 residue preincubated for 30 mins followed by C5a-stimulation and measured after 5 mins; format: cell-based
[6] = target: T2, Phosphatidylinositol 4,5-bisphosphate 3-kinase catalytic subunit delta isoform (Homo sapiens, UniProt O00329); test: Inhibition of PI3Kdelta in human Ramos cells assessed as reduction in antihuman IgM-stimulated AKT phosphorylation at Ser473 residue preincubated for 60 mins followed by antihuman IgM stimulation and measured after 15 mins; format: cell-based
T2 sequence (O00329 whole entry): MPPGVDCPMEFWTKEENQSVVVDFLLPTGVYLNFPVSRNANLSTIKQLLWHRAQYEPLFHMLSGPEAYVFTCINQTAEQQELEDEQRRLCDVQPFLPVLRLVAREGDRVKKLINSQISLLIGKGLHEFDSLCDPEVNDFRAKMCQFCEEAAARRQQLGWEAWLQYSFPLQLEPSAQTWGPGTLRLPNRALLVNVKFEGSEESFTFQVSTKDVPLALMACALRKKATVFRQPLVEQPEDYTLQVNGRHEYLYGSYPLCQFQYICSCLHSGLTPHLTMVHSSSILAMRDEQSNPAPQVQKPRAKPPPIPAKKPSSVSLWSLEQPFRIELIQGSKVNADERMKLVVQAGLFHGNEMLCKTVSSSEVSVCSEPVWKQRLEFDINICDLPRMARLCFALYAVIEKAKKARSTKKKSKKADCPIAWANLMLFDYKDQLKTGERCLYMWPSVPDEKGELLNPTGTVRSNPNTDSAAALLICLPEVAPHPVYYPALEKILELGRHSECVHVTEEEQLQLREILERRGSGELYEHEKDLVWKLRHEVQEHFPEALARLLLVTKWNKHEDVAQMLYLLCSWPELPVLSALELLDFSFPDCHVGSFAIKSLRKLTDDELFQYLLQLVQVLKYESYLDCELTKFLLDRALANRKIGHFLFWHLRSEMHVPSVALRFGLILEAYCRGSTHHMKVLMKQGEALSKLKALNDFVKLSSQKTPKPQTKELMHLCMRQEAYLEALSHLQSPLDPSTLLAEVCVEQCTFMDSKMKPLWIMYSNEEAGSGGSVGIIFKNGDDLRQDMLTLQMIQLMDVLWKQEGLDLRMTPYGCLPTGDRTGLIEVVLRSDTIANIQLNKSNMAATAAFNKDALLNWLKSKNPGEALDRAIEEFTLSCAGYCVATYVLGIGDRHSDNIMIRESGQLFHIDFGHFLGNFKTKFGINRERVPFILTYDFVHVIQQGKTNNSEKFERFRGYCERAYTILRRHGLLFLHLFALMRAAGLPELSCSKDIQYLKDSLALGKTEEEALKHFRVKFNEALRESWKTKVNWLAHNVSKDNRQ

[7] = target: PI3-kinase p110-delta/p85-alpha (Homo sapiens, UniProt O00329); test: biochemical
PI3-kinase p110-delta/p85-alpha, sequence (P27986 whole entry, one chain of several, canonical isoform): as the sequence (P27986 whole entry) above
Description: Inhibition of N-terminal His6-tagged recombinant full length human p110delta/untagged recombinant full length human p85alpha expressed in baculovirus infected Sf21 insect cells using PIP2 as substrate measured after 80 mins by transcreener fluorescence polarization assay

[8] = target: Phosphatidylinositol 4,5-bisphosphate 3-kinase catalytic subunit gamma isoform (Homo sapiens, UniProt P48736)
Phosphatidylinositol 4,5-bisphosphate 3-kinase catalytic subunit gamma isoform, sequence (P48736 whole entry, canonical isoform): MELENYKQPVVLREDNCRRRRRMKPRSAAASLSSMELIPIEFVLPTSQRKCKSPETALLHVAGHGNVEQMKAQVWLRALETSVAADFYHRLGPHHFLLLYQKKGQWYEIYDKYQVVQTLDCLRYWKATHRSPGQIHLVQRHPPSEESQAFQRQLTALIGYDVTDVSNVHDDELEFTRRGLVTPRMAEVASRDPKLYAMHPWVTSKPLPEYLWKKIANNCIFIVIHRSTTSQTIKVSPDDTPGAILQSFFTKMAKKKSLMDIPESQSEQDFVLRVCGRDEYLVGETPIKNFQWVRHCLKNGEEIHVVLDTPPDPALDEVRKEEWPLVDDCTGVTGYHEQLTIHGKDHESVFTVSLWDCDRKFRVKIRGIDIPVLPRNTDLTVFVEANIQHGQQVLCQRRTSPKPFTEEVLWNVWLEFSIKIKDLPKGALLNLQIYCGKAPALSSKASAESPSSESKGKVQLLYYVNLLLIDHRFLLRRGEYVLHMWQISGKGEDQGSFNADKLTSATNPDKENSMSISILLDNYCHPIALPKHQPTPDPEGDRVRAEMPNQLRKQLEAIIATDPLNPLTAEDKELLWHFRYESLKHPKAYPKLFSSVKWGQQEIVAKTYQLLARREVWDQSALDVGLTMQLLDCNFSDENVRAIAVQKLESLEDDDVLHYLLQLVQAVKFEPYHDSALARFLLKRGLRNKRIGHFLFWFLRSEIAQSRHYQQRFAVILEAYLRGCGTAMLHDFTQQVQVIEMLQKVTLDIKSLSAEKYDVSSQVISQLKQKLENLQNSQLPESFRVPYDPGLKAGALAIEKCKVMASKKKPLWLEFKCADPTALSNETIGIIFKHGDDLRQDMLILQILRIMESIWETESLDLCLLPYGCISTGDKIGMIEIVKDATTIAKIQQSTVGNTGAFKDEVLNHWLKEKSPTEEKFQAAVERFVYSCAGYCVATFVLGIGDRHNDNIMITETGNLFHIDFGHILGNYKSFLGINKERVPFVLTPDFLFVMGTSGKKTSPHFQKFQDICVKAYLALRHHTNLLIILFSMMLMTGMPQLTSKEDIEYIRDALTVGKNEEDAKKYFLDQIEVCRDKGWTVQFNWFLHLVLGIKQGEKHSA
Description: Inhibition of recombinant human full-length His-tagged PI3K p110gamma expressed in baculovirus expression system using PIP2 as substrate measured after 80 mins by transcreener fluorescence polarization assay

[9] = target: T1, PI3K p110 beta/p85 alpha; test: Inhibition of N-terminal His6-tagged recombinant full length human p110beta/untagged recombinant full length human p85alpha expressed in baculovirus infected Sf21 insect cells using PIP2 as substrate measured after 80 mins by transcreener fluorescence polarization assay
[10] = system: Rattus norvegicus; test: Antiarthritic activity in po dosed type2 collagen-induced Wistar rat arthritis model assessed as reduction in hind paw volume administered twice daily for 7 days and measured daily during compound dosing by plethysmometry; format: functional; conditions: 168 h
[11] = system: Rattus norvegicus; test: Inhibition of KC/GRO-induced neutrophil migration in Wistar rat air pouch model at 10 mg/kg, po pretreated for 0.5 hrs followed by KC/GRO-stimulation and measured after 4 hrs by flow cytometry relative to control; format: functional
[12] = AUC in Beagle dog at 5 mg/kg, po by LC-MS/MS analysis; format: ADME, organism-based, Canis lupus familiaris; conditions: in vivo
[13] = Half life in Beagle dog at 1 mg/kg, iv by LC-MS/MS analysis; format: ADME, organism-based, Canis lupus familiaris; conditions: in vivo
[14] = Cmax in Sprague-Dawley rat at 10 mg/kg, po by LC-MS/MS analysis; format: ADME, organism-based; parameters: dose 10 mg/kg, route oral; conditions: in vivo
[15] = Cmax in Beagle dog at 5 mg/kg, po by LC-MS/MS analysis; format: ADME, organism-based, Canis lupus familiaris; parameters: dose 5 mg/kg, route oral; conditions: in vivo
[16] = Volume of distribution at steady state in Beagle dog at 1 mg/kg, iv by LC-MS/MS analysis; format: ADME, organism-based, Canis lupus familiaris; conditions: in vivo, read-out: Vdss
[17] = target: T2, Phosphatidylinositol 4,5-bisphosphate 3-kinase catalytic subunit delta isoform; test: Inhibition of PI3Kdelta in human whole blood assessed as reduction in fMLP-stimulated CD63 expression in basophils preincubated for 30 mins followed by fMLP stimulation; format: tissue-based
[18] = AUC in Sprague-Dawley rat at 10 mg/kg, po by LC-MS/MS analysis; format: ADME, organism-based; conditions: in vivo
[19] = Half life in Sprague-Dawley rat at 2.5 mg/kg, iv by LC-MS/MS analysis; format: ADME, organism-based; conditions: in vivo
[20] = Oral bioavailability in Sprague-Dawley rat at 10 mg/kg by LC-MS/MS analysis; format: ADME, organism-based; conditions: in vivo
[21] = Clearance in Beagle dog at 1 mg/kg, iv by LC-MS/MS analysis; format: ADME, organism-based, Canis lupus familiaris; conditions: in vivo
[22] = system: Rattus norvegicus; test: Ex vivo inhibition of anti-IgD-induced B cell activation in Wistar rat assessed as CD86 expression at 1 mg/kg, po pretreated for 2 hrs followed by anti-IgD stimulation and measured after overnight incubation by flow cytometry relative to control; format: functional
[23] = Oral bioavailability in Beagle dog at 5 mg/kg by LC-MS/MS analysis; format: ADME, organism-based, Canis lupus familiaris; conditions: in vivo
[24] = target: T2, Phosphatidylinositol 4,5-bisphosphate 3-kinase catalytic subunit delta isoform; test: Inhibition of PI3Kdelta in human whole blood assessed as reduction in anti-IgM-stimulated CD69 expression on B-cells preincubated for 60 mins followed by anti-IgM stimulation and measured after overnight incubation by flow cytometry; format: tissue-based
[25] = AUC in Sprague-Dawley rat at 2.5 mg/kg, iv by LC-MS/MS analysis; format: ADME, organism-based; conditions: in vivo
[26] = Clearance in Sprague-Dawley rat at 2.5 mg/kg, iv by LC-MS/MS analysis; format: ADME, organism-based; conditions: in vivo
[27] = AUC in Beagle dog at 1 mg/kg, iv by LC-MS/MS analysis; format: ADME, organism-based, Canis lupus familiaris; conditions: in vivo
[28] = Inhibition of PI3Kdelta in rat whole blood assessed as reduction in anti-IgD-stimulated CD86 expression on B-cells preincubated for 60 mins followed by anti-IgD stimulation and measured after overnight incubation by flow cytometry; format: tissue-based

remaining at 0.5 h, 1 µM [1]: 38.8%
remaining at 0.5 h, 1 µM [2]: 72.6%
SMILES: O=c1c2c(Cl)ccn2nc([C@@H]2CCCN2c2ncnc3[nH]cnc23)n1-c1ccccc1

remaining at 0.5 h, 1 µM [1]: 44.3%
inhibition at 1 µM [3]: 17.4%
SMILES: O=c1c2cccn2nc([C@@H]2CCCN2c2ncnc3[nH]cnc23)n1-c1ccccc1

remaining at 0.5 h, 1 µM [1]: 41.4%
remaining at 0.5 h, 1 µM [2]: 17.9%
SMILES: CC(=O)c1c[nH]c2ncnc(N3CCC[C@H]3c3nn4ccc(Cl)c4c(=O)n3-c3ccccc3)c12

remaining at 0.5 h, 1 µM [1]: 51.8%
inhibition at 1 µM [3]: 52.9%
SMILES: O=c1c2c(F)ccn2nc([C@@H]2CCCN2c2ncnc3[nH]cnc23)n1-c1ccccc1

IC50 [5]: 42 nM
IC50 [6]: 5 nM
remaining at 0.5 h, 1 µM [1]: 26.1%
remaining at 0.5 h, 1 µM [2]: 25.1%
SMILES: CC(=O)c1c[nH]c2ncnc(N3CCC[C@H]3c3nn4ccc(F)c4c(=O)n3-c3ccccc3)c12

remaining at 0.5 h, 1 µM [1]: 38.7%
SMILES: N#Cc1c[nH]c2ncnc(N3CCC[C@H]3c3nn4ccc(Cl)c4c(=O)n3-c3ccccc3)c12

More lines, now with the values behind:

SMILES: O=c1c2c(Cl)ccn2nc([C@@H]2CCN2c2ncnc3[nH]cnc23)n1-c1ccccc1
remaining at 0.5 h, 1 µM [1]: 78.5%
inhibition at 1 µM [3]: 18.5%
inhibition at 1 µM [4]: -1.5%
remaining at 0.5 h, 1 µM [2]: 95.4%

SMILES: N#Cc1c[nH]c2ncnc(N3CC[C@H]3c3nn4ccc(Cl)c4c(=O)n3-c3ccccc3)c12
IC50 [5]: 152 nM
IC50 [6]: 21 nM
remaining at 0.5 h, 1 µM [1]: 63.9%
IC50 [7]: 13 nM
IC50 [8]: 34 nM
inhibition at 1 µM [4]: -0.3%
remaining at 0.5 h, 1 µM [2]: 89.8%
IC50 [9]: 945 nM

SMILES: N#Cc1cnc(N)nc1N1CC[C@H]1c1nn2ccc(Cl)c2c(=O)n1-c1ccccc1
IC50 [5]: 241 nM
IC50 [6]: 16 nM
remaining at 0.5 h, 1 µM [1]: 77.5%
inhibition at 1 µM [3]: 37%
inhibition at 1 µM [4]: < 50%
remaining at 0.5 h, 1 µM [2]: 71.2%

SMILES: CC(=O)c1c[nH]c2ncnc(N3CC[C@H]3c3nn4ccc(Cl)c4c(=O)n3-c3ccccc3)c12
IC50 [5]: 142 nM
IC50 [6]: 21 nM
remaining at 0.5 h, 1 µM [1]: 77.2%
inhibition at 1 µM [3]: 45.9%
inhibition at 1 µM [4]: 8.4%
remaining at 0.5 h, 1 µM [2]: 83%

SMILES: CC(=O)c1cnc(N)nc1N1CC[C@H]1c1nn2ccc(Cl)c2c(=O)n1-c1ccccc1
ED50 [10]: 0.25 mg/kg
inhibition in vivo at 10 mg/kg [11]: 87.9%
AUC [12]: 13100 ng·h/mL
half-life [13]: 6.3 h
Cmax [14]: 2730 ng/mL
Cmax [15]: 2530 ng/mL
IC50 [7]: 5 nM
Vd [16]: 1.7 L/kg
IC50 [17]: 337 nM
AUC [18]: 14300 ng·h/mL
half-life [19]: 1.5 h
bioavailability [20]: 108%
clearance [21]: 5.4 mL/min/kg
inhibition in vivo at 1 mg/kg [22]: 88.3%
bioavailability [23]: 82.4%
IC50 [24]: 63 nM
AUC [25]: 3270 ng·h/mL
clearance [26]: 12.7 mL/min/kg
IC50 [9]: 590 nM
AUC [27]: 3260 ng·h/mL
IC50 [28]: 44 nM
